Results from patent publication US9248150B2 (priority 2009, dated 2016).
“And” between values parts separate entries of the source, which are not always exact repeats. Identical values can stand only once. “Also recorded” adds a separate entry of the source.

Tests used:
UB/OC-1 cells [1] = assay: ROS generation by H2DCFDA fluorescence, confocal microscopy; type: cell-based
Excerpt: Imaging of ROS generation was done as previously described (P. Puntambekar et al., Essential role of Rac1/NADPH oxidase in nerve growth factor induction of TRPV1 expression, J. NEUROCHEM. 95: 1689-1703 (2005)).

NOX3 mRNA [2] = assay: NOX3 mRNA by real time RT-PCR in UB/OC-1 cells; type: cell-based
Protocol: RNA was isolated by adding 1 ml TRI reagent to 100 mg of cochlear tissue or 0.5 ml TRI reagent per well of each six well plate. Tissues were homogenized in TRI reagent using a Polytron (setting 7, 15 sec) and centrifuged at 12,000×g for 10 min at 4° C. The remainder of the procedure was identical to that described in D. Mukherjea et al., NEUROSCIENCE 139:733-740 (2006).
(§1) For real time reverse transcriptase polymerase chain reaction (RT-PCR), one microgram of total RNA was converted to cDNA using iScript cDNA Synthesis Kit (Bio-Rad, Hercules, Calif.) and sample preparations were performed essentially as previously described (D. Mukherjea et al., NEUROSCIENCE 139:733-740 (2006)). Amplification and detection was performed with the Cepheid Smart Cycler Detection System. On completion of amplification, the melting curve analysis was performed by cooling the reaction to 60° C. and then heating slowly 95° C., according to the instruction of manufacturer (Cepheid systems). The cycle number at which the sample reaches the threshold fluorescent intensity is termed the cycle threshold (Ct). The relative change in mRNA levels between untreated control (1) and treated sample (2) was measured using the formula: 2-ΔΔCt (R. Soong et al., Quantitative reverse transcription-polymerase chain reaction detection of cytokeratin 20 in noncolorectal lymph nodes, CLIN. CANCER RES. 7:3423-3429 (2001)). Relative change in mRNA levels between samples was expressed as a percentage of normal control. Negative controls for both target gene and GAPDH was used for all reaction groups. Real time PCR products were analyzed on a 2% agarose gel to verify the correct product sizes and visualization of the amplified product was effected using the dye SyBr Green I (Molecular Probes, Eugene, Oreg.).

NOX3 = NOX3 immunoreactivity in cochlea sections; type: in vivo, male Wistar rats
KIM-1 mRNA [3] = assay: KIM-1 mRNA by real time RT-PCR in UB/OC-1 cells; type: cell-based
Protocol: as §1, with “Negative controls for both target gene and GAPDH was used for all reaction groups.” left out, “Oreg.). […]” for “Oreg.).”

TRPV1 mRNA [4] = assay: TRPV1 mRNA by real time RT-PCR in UB/OC-1 cells; type: cell-based
Protocol: as §1, with “Negative controls for both target gene and GAPDH was used for all reaction groups.” left out, “Oreg.). […]” for “Oreg.).”

KIM-1 = KIM-1 immunoreactivity in cochlea sections; type: in vivo, male Wistar rats; conditions: 72 h
Protocol: Cochleas were harvested 72 h later, fixed in 4% paraformaldehyde, decalcified, sectioned and stained for KIM1 immunoreactivity. FIG. 3C is a panel of photomicrographs of the cochlea sections from following the different treatment conditions and stained for KIM-1 immunoreactivity. […] (SVA-stria vascularis, OHC-outer hair cell, RM-Reissner's membrane, SG—spiral ganglion).

UB/OC-1 cells [5] = assay: Intracellular Ca2+ release by Fluo-4AM imaging; type: cell-based
Protocol: UB/OC-1 cells were grown on glass coverslips. […] After incubation, cells were washed once with physiological buffer and then imaged by a Fluoview confocal microscope (Olympus Imaging America Inc., Center Valley, Pa., USA).

UB/OC-1 hair cells = assay: Cell viability by trypan blue staining; type: cell-based
Protocol: Cells were then treated with trypan blue and the number of viable cells per high power field determined and expressed as a percent of total cell per field. […] Data are present as the mean±standard error from four independent coverslips.

[6] = tested on: AT6.1 rat prostate cancer cells; assay: Cisplatin killing of tumor cells (imaging); type: cell-based
Excerpt: Cells were fixed with 4% paraformaldehyde and imaged. FIG. 5B is a panel of photomicrographs of the cell images.

[7] = tested on: TRP and P2x receptor channels in UB/OC-1 cells; assay: FM1-43 dye uptake via TRP and P2x channels; type: cell-based; conditions: for basal FM1-43 uptake (fluorescence): added alone
Excerpt: FM1-43 is selectively taken up by cells expressing the TRP and P2x receptor channels.
Cells were scanned every 6 sec by Argon laser (480 nm) and at the 6th scan FM1-43 dye was dropped on the cells. FIG. 6 is panel of photomicrographs of the cells following dye exposure. […] Each gray-scale image to the right of each fluorescence image is the differential interference constrast image for the cells shown in the corresponding fluorescence image.

[8] = tested on: outer hair cells of the organ of Corti; assay: Outer hair cell damage by scanning electron microscopy, i.p. transplatin; type: in vivo, rat; conditions: 72 h
KIM-1 mRNA [9] = assay: Kidney KIM-1 mRNA by real time RT-PCR; type: in vivo, male Wistar rats; conditions: 72 h
Excerpt: (§2) Kidneys were harvested, total RNA was isolated, reverse transcribed and real time RT-PCR performed substantially as described herein above. FIG. 8A is a bar graph of the increase in mRNA expression for each of KIM-1 (green), NOX3 (blue) and TRPV1 (red) observed. […] Attenuation of these markers by transplatin is indicative of its nephroprotective role.

NOX3 mRNA [10] = assay: Kidney NOX3 mRNA by real time RT-PCR; type: in vivo, male Wistar rats; conditions: 72 h
Excerpt: as §2

TRPV1 mRNA [11] = assay: Kidney TRPV1 mRNA by real time RT-PCR; type: in vivo, male Wistar rats; conditions: 72 h
Excerpt: as §2

[12] = tested on: outer hair cells of the organ of Corti; assay: Outer hair cell damage/loss by SEM, trans-tympanic transplatin; type: in vivo, Wistar rats
Protocol: Post-treatment ABRs were conducted 72 h later. […] This was abrogated by pretreatment with trans-tympanic transplatin. […] Arrows indicate areas of damage to outer hair cells.

[13] = Cisplatin-induced hearing loss, ABR threshold shifts, i.p. transplatin; type: in vivo, male Wistar rats
Excerpt: Data are presented as the mean±standard error of 8 ears examined from 4 animals per group.

Body weight loss = type: in vivo, rat; conditions: data not shown
[14] = tested on: dorsal root ganglion (DRG) cells; assay: NGF-induced ROS generation in dorsal root ganglion cells (H2DCFDA); type: cell-based, neonatal mice; conditions: transplatin 2.5 μM 30 min prior to NGF 100 ng/ml
Protocol: Recent studies have shown that ROS generation is the single most important mediator of inflammation. Dorsal root ganglion (DRG) cells isolated from neonatal mice have shown increased ROS generation in response to nerve growth factor (NGF; data not shown). […] Fluorescent images were obtained at 0 sec and collected over a period of 5 min after addition of NGF (100 ng/ml). NGF generated ROS is shown by changes in fluorescence intensity over time.

[15] = tested on: HEK-293 cells stably transfected with TRPV1 receptor; assay: Capsaicin-induced ROS generation in HEK-VR1 cells; type: cell-based; conditions: transplatin 2.5 μM pre-treatment; data not shown
Excerpt: Thus, transplatin can be useful in the treatment of inflammatory conditions, such as arthritis, inflammatory and chronic pain and cancer pain.

[16] = Body temperature after i.p. transplatin; type: in vivo, rat; conditions: transplatin 5.5 mg/kg i.p., every 30 min for 150 min, 2 rats
Protocol: TRPV1 antagonists were initially developed as novel treatments for inflammatory pain. However, it was observed that the administration of classical TRPV1 antagonists produced hyperthermia in animals and human (N. R. Gavva, Body-temperature maintenance as the predominant function of the vanilloid receptor TRPV1. TRENDS PHARMACOL SCI 29:550-557 (2007)), underscoring a role of TRPV1 in the control of body temperature. […] Body temperature was then recorded every 30 min for 150 min. FIG. 11 is a graph of the results observed in two rats (Tp) and a control animal (PBS).

cellular DNA = conditions: cited from earlier work
[17] = transplatin 1, 2.5, 10 μM 30 min prior to cisplatin 5 μM 24 h
[18] = transplatin 5.5 mg/kg i.p. followed by cisplatin 11 mg/kg i.p.
[19] = transplatin 1 μM 30 min prior to cisplatin 5 μM
[20] = transplatin 1 mg/kg i.p. then cisplatin 11 mg/kg i.p.
[21] = transplatin 5.5 mg/kg i.p. alone
[22] = trans-tympanic transplatin 50 μl of 0.5 mg/ml, then cisplatin 11 mg/kg i.p.

Compound: N.N.[Cl][Pt][Cl] [cisplatin, reference compound]
- ROS generation (H2DCFDA fluorescence) (UB/OC-1 cells [1]; cisplatin 2.5 μM, 30 min): marked increase in ROS generation; also recorded: increases ROS generation
- NOX3 mRNA (NOX3 mRNA [2]; cisplatin 5 μM): increase in NOX3 mRNA
- NOX3 immunoreactivity in cochlea (OHC, stria vascularis, spiral ganglion) (NOX3; cisplatin 11 mg/kg i.p., 72 h): increased NOX3 protein
- increase in KIM-1 mRNA expression over vehicle treated controls (KIM-1 mRNA [3]; cisplatin 5 μM, 24 h): 4 fold and 4±0.5 fold
- increase in TRPV1 mRNA expression over vehicle treated controls (TRPV1 mRNA [4]; cisplatin 5 μM, 24 h): 3.6 fold and 3.5±0.7 fold
- KIM-1 immunolabeling in organ of Corti / cochlea sections (KIM-1; cisplatin 11 mg/kg i.p.): induction of KIM-1 immunolabeling
- intracellular Ca2+ (Fluo-4AM fluorescence) (UB/OC-1 cells [5]; cisplatin 5 μM, 30 min): increased fluorescence
- cell death (UB/OC-1 hair cells; cisplatin 20 μM, 24 h): ~80%
- cell loss ([6]; cisplatin 100 μM, 24 h): ~80%
- uptake of FM1-43 dye ([7]; cisplatin 5 μM alone, 30 min): increased uptake of FM1-43 dye
- outer hair cells damaged per field, basal turn of organ of Corti ([8]; cisplatin 11 mg/kg i.p.): ~40%
- kidney KIM-1 mRNA expression (KIM-1 mRNA [9]; cisplatin 11 mg/kg i.p.): 50 fold
- kidney NOX3 mRNA expression (NOX3 mRNA [10]; cisplatin 11 mg/kg i.p.): 4 fold
- kidney TRPV1 mRNA expression (TRPV1 mRNA [11]; cisplatin 11 mg/kg i.p.): 6 fold
- outer hair cell damage/loss ([12]; cisplatin 11 mg/kg i.p., 72 h): ~70%

Compound: N.N.N.N.N.N.N.N.N.N.N.N.N.N.[Cl-].[Cl-].[Cl-].[Cl-].[Cl-].[Cl-].[O-2].[O-2].[Ru+3].[Ru+3].[Ru+4] [ruthenium red, reference compound]
- basal FM1-43 uptake (fluorescence) [7]: less inhibition of basal fluorescence than transplatin

Compound: N.N.[Cl][Pt][Cl] [transplatin, trans-diamminedichloroplatinum (II)]
- cisplatin-induced increase in ROS generation (UB/OC-1 cells [1]; pretreatment with transplatin 1 μM, then cisplatin 2.5 μM 30 min): attenuated; also recorded: significantly reduced
- ROS generation (UB/OC-1 cells [1]; transplatin administered alone): did not stimulate ROS generation
- cisplatin-induced increase in NOX3 mRNA (NOX3 mRNA [2]; [17]): attenuated; also recorded: down regulates the increase in NOX3 mRNA
- NOX3 mRNA expression (NOX3 mRNA [2]; transplatin alone (1, 2.5 μM)): almost no expression of NOX3 mRNA
- cisplatin-induced increase in NOX3 in cochlea (NOX3; transplatin 5.5 mg/kg i.p. immediately before cisplatin 11 mg/kg i.p., 72 h): reduced
- NOX3 expression in cochlea vs vehicle control (NOX3; transplatin alone): did not increase NOX3 expression
- cisplatin-induced KIM-1 mRNA (KIM-1 mRNA [3]; [17]): attenuated to control levels
- cisplatin-induced TRPV1 mRNA expression (TRPV1 mRNA [4]; transplatin 1, 2.5, 10 μM 30 min prior to cisplatin 5 μM 24 h, 10 μM best inhibition): attenuated; also recorded: abrogated by transplatin at higher concentrations
- cisplatin-induced KIM-1 immunolabeling in cochlea (KIM-1; [18]): reduced; also recorded: decreased
- cisplatin-induced increase in intracellular Ca2+ (UB/OC-1 cells [5]; [19]): abrogated
- cell survival (UB/OC-1 hair cells; transplatin 1, 2.5, 10 μM 30 min prior to cisplatin 20 μM 24 h, depending on dose): 80-97%
- cell survival compared to vehicle control ([6]; transplatin alone): did not cause significant change in cell survival
- basal FM1-43 uptake (fluorescence) [7]: reduced fluorescence below that of the control cells
- FM1-43 dye entry after cisplatin [7, 19]: decreased entry of the dye
- animals protected [13, 20]: 75%
- reductions in ABR thresholds (number protected) [13, 20]: 6 of 8
- auditory protection ([13]; transplatin 3 mg/kg i.p. then cisplatin 11 mg/kg i.p.): complete protection
- auditory protection ([13]; transplatin 5.5 mg/kg i.p. then cisplatin 11 mg/kg i.p.): complete protection
- ABR thresholds ([13]; transplatin alone): did not affect the ABR thresholds
- outer hair cells damaged per field, basal turn of organ of Corti ([8]; transplatin 5.5 mg/kg i.p. pretreatment then cisplatin 11 mg/kg i.p.): below 10%
- weight loss (Body weight loss; transplatin by itself): did not produce weight loss
- cisplatin-mediated weight loss (Body weight loss; transplatin with cisplatin): did not inhibit cisplatin-mediated weight loss
- kidney KIM-1 mRNA expression compared to PBS controls (KIM-1 mRNA [9]; [21]): 1.7 fold
- kidney KIM-1 mRNA expression (KIM-1 mRNA [9]; [18]): 1.1 fold
- kidney NOX3 mRNA expression compared to PBS controls (NOX3 mRNA [10]; [21]): 1.3 fold
- kidney NOX3 mRNA expression (NOX3 mRNA [10]; [18]): 1.7 fold
- kidney TRPV1 mRNA expression compared to PBS controls (TRPV1 mRNA [11]; [21]): 0.5 fold
- kidney TRPV1 mRNA expression (TRPV1 mRNA [11]; [18]): 1.5 fold
- NGF-induced ROS generation [14]: inhibited ROS generation
- ROS generation by 10 μM capsaicin [15]: inhibited
- cisplatin-induced outer hair cell damage (SEM morphology) [12, 22]: almost completely abrogated
- outer hair cell damage/loss [12, 22]: ~7%
- body temperature [16]: did not produce any apparent increase in body temperature; also recorded: no apparent trend of higher body temperatures
- time of maximum DNA binding (cellular DNA): 6 h
